This test has as its target T1, PLK1 (Homo sapiens, UniProt P53350).
T1 construct: endogenous in cells; host or cells: HeLa
Nature of the test: PLK1 protein degradation in HeLa cells, Western blotting (PLK1/GAPDH ratio). The format is cell-based. To be noted: 6 hours compound incubation; for DC50: measured only if the grade of Dmax is A or B; for Dmax: thymidine block and release, 10 points three-fold from 3 μM, PLK1 to GAPDH ratio. The method, boiled down: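 PLK1 level measured by Western blot as PLK1/GAPDH in HeLa lysates (15 μg protein per lane). Cells were blocked with 2 mM thymidine 24 h, released 4 h, and exposed 6 h to compound, 10 concentrations, 3-fold steps, top 3 μM.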

SMILES strings stand for the structures. Where two headings read alike, the source gives them in different places.

T1 sequence (P53350 whole entry): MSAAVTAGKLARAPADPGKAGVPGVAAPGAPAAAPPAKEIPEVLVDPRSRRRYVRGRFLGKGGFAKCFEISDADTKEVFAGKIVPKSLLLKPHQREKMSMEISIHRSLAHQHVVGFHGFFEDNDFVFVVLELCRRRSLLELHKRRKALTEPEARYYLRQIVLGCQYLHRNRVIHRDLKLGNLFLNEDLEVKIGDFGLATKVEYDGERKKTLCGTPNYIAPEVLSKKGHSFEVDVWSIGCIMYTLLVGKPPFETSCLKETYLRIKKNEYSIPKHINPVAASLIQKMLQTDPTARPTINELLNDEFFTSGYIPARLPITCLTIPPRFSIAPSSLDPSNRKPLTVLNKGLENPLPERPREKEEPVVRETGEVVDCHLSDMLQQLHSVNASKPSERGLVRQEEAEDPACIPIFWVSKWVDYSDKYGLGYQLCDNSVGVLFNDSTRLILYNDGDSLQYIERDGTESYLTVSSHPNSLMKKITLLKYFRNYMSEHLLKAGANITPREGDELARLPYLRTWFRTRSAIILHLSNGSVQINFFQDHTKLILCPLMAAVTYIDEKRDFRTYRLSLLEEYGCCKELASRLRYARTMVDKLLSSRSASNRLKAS

By DC50 is commonly meant the concentration at which degradation of the target reaches its halfway point. A word on the Dmax: it is the greatest extent of degradation seen. As for `COc1cc(C(=O)NC2CCN(C(=O)CCCCNc3cccc4c3C(=O)N(C3CCC(=O)NC3=O)C4=O)C2)c(F)cc1Nc1ncc2c(n1)N(C1CCCC1)CC(F)(F)C(=O)N2C` (stereo not drawn) [Compound 117, 4-((9-cyclopentyl-7,7-difluoro-5-methyl-6-oxo-6,7,8,9-tetrahydro-5H-pyrimido[4,5-b][1,4]diazepin-2-yl)amino)-N-(1-(5-((2-(2,6-dioxopiperidin-3-yl)-1,3-dioxoisoindolin-4-yl)amino)pentanoyl)pyrrolidin-3-yl)-2-fluoro-5-methoxybenzamide], the DC50 is at most 50 nM. Moreover, under “read-out: Dmax”, the Dmax was at least 80%.
Taken in the same sequence, the figures for `COc1cc(C(=O)NC2CCN(CCN3CCN(c4ccc5c(c4)C(=O)N(C4CCC(=O)NC4=O)C5=O)CC3)CC2)c(F)cc1Nc1ncc2c(n1)N(C1CCCC1)CC(F)(F)C(=O)N2C` (stereo not drawn) [Compound 68, 4-((9-cyclopentyl-7,7-difluoro-5-methyl-6-oxo-6,7,8,9-tetrahydro-5H-pyrimido[4,5-b][1,4]diazepin-2-yl)amino)-N-(1-(2-(4-(2-(2,6-dioxopiperidin-3-yl)-1,3-dioxoisoindolin-5-yl)piperazin-1-yl)ethyl)piperidin-4-yl)-2-fluoro-5-methoxybenzamide] were at most 500 nM and 60 to 80%.
For `COc1cc(C(=O)NC2CCCN(CCOCCOCCNc3cccc4c3C(=O)N(C3CCC(=O)NC3=O)C4=O)C2)c(F)cc1Nc1ncc2c(n1)N(C1CCCC1)CC(F)(F)C(=O)N2C` (stereo not drawn) [Example 104, 4-((9-cyclopentyl-7,7-difluoro-5-methyl-6-oxo-6,7,8,9-tetrahydro-5H-pyrimido[4,5-b][1,4]diazepin-2-yl)amino)-N-(1-(2-(2-(2-((2-(2,6-dioxopiperidin-3-yl)-1,3-dioxoisoindolin-4-yl)amino)ethoxy)ethoxy)ethyl)piperidin-3-yl)-2-fluoro-5-methoxybenzamide], the DC50 is at most 50 nM. Further, where the note is “read-out: Dmax”, the Dmax was at least 80%.
Regarding `COc1cc(C(=O)NC2CCN(CCCCCCCCNc3cccc4nnn(C5CCC(=O)NC5=O)c(=O)c34)CC2)c(F)cc1Nc1ncc2c(n1)N(C1CCCC1)CC(F)(F)C(=O)N2C` (stereo not drawn) [Compound 79, 4-((9-cyclopentyl-7,7-difluoro-5-methyl-6-oxo-6,7,8,9-tetrahydro-5H-pyrimido[4,5-b][1,4]diazepin-2-yl)amino)-N-(1-(8-((3-(2,6-dioxopiperidin-3-yl)-4-oxo-3,4-dihydrobenzo[d][1,2,3]triazin-5-yl)amino)octyl)piperidin-4-yl)-2-fluoro-5-methoxybenzamide], the half-maximal degradation concentration (DC50) was at most 50 nM. Where the note is “read-out: Dmax”, the Dmax was at least 80%.
As for `COc1cc(C(=O)NC2CCN(CCCCCCCCOCC(=O)N[C@H](C(=O)N3C[C@H](O)C[C@H]3C(=O)NCc3ccc(-c4scnc4C)cc3)C(C)(C)C)CC2)c(F)cc1Nc1ncc2c(n1)N(C1CCCC1)CC(F)(F)C(=O)N2C` [Example 84], the DC50 was at most 500 nM; the Dmax entry was “B (B: Dmax is 80% or less and 60% or more)”.
Take `COc1cc(C(=O)N[C@H]2CCN(C(=O)CCCCCNc3cccc4c3C(=O)N(C3CCC(=O)NC3=O)C4=O)C2)c(F)cc1Nc1ncc2c(n1)N(C1CCCC1)CC(F)(F)C(=O)N2C` (stereo partly drawn) [Compound 119, 4-((9-cyclopentyl-7,7-difluoro-5-methyl-6-oxo-6,7,8,9-tetrahydro-5H-pyrimido[4,5-b][1,4]diazepin-2-yl)amino)-N-((3S)-1-(6-((2-(2,6-dioxopiperidin-3-yl)-1,3-dioxoisoindolin-4-yl)amino)hexanoyl)pyrrolidin-3-yl)-2-fluoro-5-methoxybenzamide]: the DC50 was at most 50 nM. The Dmax (read-out: Dmax) is at least 80%.
Taken in the same sequence, the figures for `COc1cc(C(=O)N[C@@H]2CCN(C(=O)CCCN3CCN(c4cccc5c4C(=O)N(C4CCC(=O)NC4=O)C5=O)CC3)C2)c(F)cc1Nc1ncc2c(n1)N(C1CCCC1)CC(F)(F)C(=O)N2C` (stereo partly drawn) [Compound 133, 4-((9-cyclopentyl-7,7-difluoro-5-methyl-6-oxo-6,7,8,9-tetrahydro-5H-pyrimido[4,5-b][1,4]diazepin-2-yl)amino)-N-((3R)-1-(4-(4-(2-(2,6-dioxopiperidin-3-yl)-1,3-dioxoisoindolin-4-yl)piperazin-1-yl)butanoyl)pyrrolidin-3-yl)-2-fluoro-5-methoxybenzamide] were at most 50 nM and at least 80%.
Taken in the same sequence, the figures for `COc1cc(C(=O)NC2CCN(CCOCCCOCCOCCOCCNc3cccc4c3C(=O)N(C3CCC(=O)NC3=O)C4=O)CC2)c(F)cc1Nc1ncc2c(n1)N(C1CCCC1)CC(F)(F)C(=O)N2C` (stereo not drawn) [Compound 25, 4-((9-cyclopentyl-7,7-difluoro-5-methyl-6-oxo-6,7,8,9-tetrahydro-5H-pyrimido[4,5-b][1,4]diazepin-2-yl)amino)-N-(1-(1-((2-(2,6-dioxopiperidin-3-yl)-1,3-dioxoisoindolin-4-yl)amino)-3,6,9,13-tetraoxapentadecan-15-yl)piperidin-4-yl)-2-fluoro-5-methoxybenzamide] were at most 50 nM and at least 80%.
In the case of `COc1cc(C(=O)NC2CCN(CCCCCCNc3cccc4c3C(=O)N(C3CCC(=O)NC3=O)C4=O)CC2)c(F)cc1Nc1ncc2c(n1)N(C1CCCC1)CC(F)(F)C(=O)N2C` (stereo not drawn) [Compound 10, 4-((9-cyclopentyl-7,7-difluoro-5-methyl-6-oxo-6,7,8,9-tetrahydro-5H-pyrimido[4,5-b][1,4]diazepin-2-yl)amino)-N-(1-(6-((2-(2,6-dioxopiperidin-3-yl)-1,3-dioxoisoindolin-4-yl)amino)hexyl)piperidin-4-yl)-2-fluoro-5-methoxybenzamide], the DC50 was at most 500 nM. The Dmax (read-out: Dmax) was in the range of 60 to 80%.
With `COc1cc(C(=O)NC2CCN(CCCOCCCOCCCOCCNc3cccc4c3C(=O)N(C3CCC(=O)NC3=O)C4=O)CC2)c(F)cc1Nc1ncc2c(n1)N(C1CCCC1)CC(F)(F)C(=O)N2C` (stereo not drawn) [Compound 24, 4-((9-cyclopentyl-7,7-difluoro-5-methyl-6-oxo-6,7,8,9-tetrahydro-5H-pyrimido[4,5-b][1,4]diazepin-2-yl)amino)-N-(1-(3-(3-(3-(2-((2-(2,6-dioxopiperidin-3-yl)-1,3-dioxoisoindolin-4-yl)amino)ethoxy)propoxy)propoxy)propyl)piperidin-4-yl)-2-fluoro-5-methoxybenzamide], the DC50 was at most 50 nM. Moreover, the Dmax (read-out: Dmax) was at least 80%.
Taken in the same sequence, the figures for `COc1cc(C(=O)NCCOCCOCCNc2ccc3c(c2)C(=O)N(C2CCC(=O)NC2=O)C3=O)c(F)cc1Nc1ncc2c(n1)N(C1CCCC1)CC(F)(F)C(=O)N2C` (stereo not drawn) [Compound 163, 4-((9-cyclopentyl-7,7-difluoro-5-methyl-6-oxo-6,7,8,9-tetrahydro-5H-pyrimido[4,5-b][1,4]diazepin-2-yl)amino)-N-(2-(2-(2-((2-(2,6-dioxopiperidin-3-yl)-1,3-dioxoisoindolin-5-yl)amino)ethoxy)ethoxy)ethyl)-2-fluoro-5-methoxybenzamide] were at most 500 nM and 60 to 80%.
Turning to `COc1cc(C(=O)N[C@H]2CC[C@H](N3CCN(CCOCCNc4cccc5c4C(=O)N(C4CCC(=O)NC4=O)C5=O)CC3)CC2)c(F)cc1Nc1ncc2c(n1)N(C1CCCC1)CC(F)(F)C(=O)N2C` (stereo partly drawn) [Example 103, 4-((9-cyclopentyl-7,7-difluoro-5-methyl-6-oxo-6,7,8,9-tetrahydro-5H-pyrimido[4,5-b][1,4]diazepin-2-yl)amino)-N-((1r,4r)-4-(4-(2-(2-((2-(2,6-dioxopiperidin-3-yl)-1,3-dioxoisoindolin-4-yl)amino)ethoxy)ethyl)piperazin-1-yl)cyclohexyl)-2-fluoro-5-methoxybenzamide], the 50% degradation concentration (DC50) was at most 50 nM. Moreover, where the note is “read-out: Dmax”, the Dmax was at least 80%.

(Values after patent US20230372498A1, “PLK1 SELECTIVE DEGRADATION INDUCING COMPOUND” (UPPTHERA, priority 2020, published 2023).)
